Source: the NIST ThermoML archive (doi:10.1016/j.jct.2018.02.018)
± gives the expanded uncertainty stated by the source.

Experiments:
[1] = refractive index (Na D-line) (dimensionless); xn = mol fraction of the nth substance listed; conditions: 100 kPa, Liquid, Standard Abbe refractometry
[2] = xn = mol fraction of the nth substance listed; conditions: 100 kPa, Liquid; for speed of sound: Frequency=3 MHz, Single path-length method; for mass density: Vibrating tube method

CN(C)CCOCCO [2-(2-dimethylaminoethoxy)ethanol] + C[S+](C)[O-]
Conditions | mass density, [2] [kg/m3] | refractive index, [1] | speed of sound, [2] [m/s]
293.15 K, x2 = 0 | 954 ± 4 | 1.442 ± 0.006 | 1403.6 ± 2.4
293.15 K, x2 = 0.0984 | 962 ± 4 | 1.444 ± 0.006 | 1410.5 ± 2.3
293.15 K, x2 = 0.2001 | 971 ± 4 | 1.447 ± 0.006 | 1417.2 ± 2.2
293.15 K, x2 = 0.2995 | 981 ± 4 | 1.449 ± 0.006 | 1423.8 ± 2.1
293.15 K, x2 = 0.4021 | 992 ± 4 | 1.452 ± 0.006 | 1431 ± 2
293.15 K, x2 = 0.4992 | 1003 ± 4 | 1.455 ± 0.006 | 1439.1 ± 1.9
293.15 K, x2 = 0.6003 | 1017 ± 4 | 1.458 ± 0.006 | 1448.2 ± 1.8
293.15 K, x2 = 0.7006 | 1033 ± 4 | 1.462 ± 0.006 | 1458.4 ± 1.7
293.15 K, x2 = 0.795 | 1051 ± 4 | 1.467 ± 0.006 | 1470.1 ± 1.6
293.15 K, x2 = 0.8997 | 1074 ± 4 | 1.472 ± 0.006 | 1485.1 ± 1.5
293.15 K, x2 = 0.9505 | 1087 ± 4 | 1.476 ± 0.006 | 1494.1 ± 1.5
303.15 K, x2 = 0 | 946 ± 4 | 1.438 ± 0.006 | 1369.9 ± 2.4
303.15 K, x2 = 0.0984 | 954 ± 4 | 1.44 ± 0.006 | 1377.3 ± 2.3
303.15 K, x2 = 0.2001 | 963 ± 4 | 1.443 ± 0.006 | 1384 ± 2.2
303.15 K, x2 = 0.2995 | 972 ± 4 | 1.445 ± 0.006 | 1390.2 ± 2.1
303.15 K, x2 = 0.4021 | 983 ± 4 | 1.448 ± 0.006 | 1397.7 ± 2
303.15 K, x2 = 0.4992 | 995 ± 4 | 1.451 ± 0.006 | 1405.5 ± 1.9
303.15 K, x2 = 0.6003 | 1008 ± 4 | 1.454 ± 0.006 | 1414.5 ± 1.8
303.15 K, x2 = 0.7006 | 1024 ± 4 | 1.458 ± 0.006 | 1425.1 ± 1.7
303.15 K, x2 = 0.795 | 1041 ± 4 | 1.462 ± 0.006 | 1436.6 ± 1.6
303.15 K, x2 = 0.8997 | 1064 ± 4 | 1.468 ± 0.006 | 1451.1 ± 1.5
303.15 K, x2 = 0.9505 | 1077 ± 4 | 1.471 ± 0.006 | 1460.6 ± 1.5
313.15 K, x2 = 0 | 938 ± 4 | 1.435 ± 0.006 | 1336.8 ± 2.4
313.15 K, x2 = 0.0984 | 946 ± 4 | 1.437 ± 0.006 | 1344.1 ± 2.3
313.15 K, x2 = 0.2001 | 954 ± 4 | 1.439 ± 0.006 | 1350.8 ± 2.2
313.15 K, x2 = 0.2995 | 964 ± 4 | 1.441 ± 0.006 | 1357.1 ± 2.1
313.15 K, x2 = 0.4021 | 975 ± 4 | 1.444 ± 0.006 | 1364.6 ± 2
313.15 K, x2 = 0.4992 | 986 ± 4 | 1.447 ± 0.006 | 1372.4 ± 1.9
313.15 K, x2 = 0.6003 | 999 ± 4 | 1.45 ± 0.006 | 1381.3 ± 1.8
313.15 K, x2 = 0.7006 | 1015 ± 4 | 1.454 ± 0.006 | 1391.4 ± 1.7
313.15 K, x2 = 0.795 | 1032 ± 4 | 1.458 ± 0.006 | 1403.2 ± 1.6
313.15 K, x2 = 0.8997 | 1054 ± 4 | 1.464 ± 0.006 | 1417.6 ± 1.5
313.15 K, x2 = 0.9505 | 1067 ± 4 | 1.467 ± 0.006 | 1427 ± 1.5
323.15 K, x2 = 0 | 930 ± 4 | 1.431 ± 0.006 | 1303.9 ± 2.4
323.15 K, x2 = 0.0984 | 937 ± 4 | 1.433 ± 0.006 | 1311.2 ± 2.3
323.15 K, x2 = 0.2001 | 946 ± 4 | 1.435 ± 0.006 | 1318 ± 2.2
323.15 K, x2 = 0.2995 | 955 ± 4 | 1.437 ± 0.006 | 1324.2 ± 2.1
323.15 K, x2 = 0.4021 | 966 ± 4 | 1.439 ± 0.006 | 1331.8 ± 2
323.15 K, x2 = 0.4992 | 977 ± 4 | 1.442 ± 0.006 | 1339.5 ± 1.9
323.15 K, x2 = 0.6003 | 991 ± 4 | 1.446 ± 0.006 | 1348.4 ± 1.8
323.15 K, x2 = 0.7006 | 1006 ± 4 | 1.45 ± 0.006 | 1358.4 ± 1.7
323.15 K, x2 = 0.795 | 1023 ± 4 | 1.454 ± 0.006 | 1370.1 ± 1.6
323.15 K, x2 = 0.8997 | 1045 ± 4 | 1.459 ± 0.006 | 1384.4 ± 1.5
323.15 K, x2 = 0.9505 | 1057 ± 4 | 1.461 ± 0.006 | 1393.6 ± 1.5

NCCO [2-aminoethan-1-ol] + C[S+](C)[O-]
Conditions | mass density, [2] [kg/m3] | refractive index, [1] | speed of sound, [2] [m/s]
293.15 K, x2 = 0 | 1016 ± 4 | 1.455 ± 0.006 | 1734.2 ± 1.7
293.15 K, x2 = 0.1026 | 1026 ± 4 | 1.457 ± 0.006 | 1701.8 ± 1.7
293.15 K, x2 = 0.2008 | 1035 ± 4 | 1.46 ± 0.006 | 1672.3 ± 1.6
293.15 K, x2 = 0.2981 | 1043 ± 4 | 1.462 ± 0.006 | 1645.9 ± 1.6
293.15 K, x2 = 0.3966 | 1051 ± 4 | 1.465 ± 0.006 | 1619.8 ± 1.6
293.15 K, x2 = 0.4933 | 1059 ± 4 | 1.467 ± 0.006 | 1595.4 ± 1.6
293.15 K, x2 = 0.6021 | 1068 ± 4 | 1.469 ± 0.006 | 1571.2 ± 1.5
293.15 K, x2 = 0.6969 | 1076 ± 4 | 1.472 ± 0.006 | 1550.6 ± 1.5
293.15 K, x2 = 0.7998 | 1083 ± 4 | 1.474 ± 0.006 | 1533.3 ± 1.5
293.15 K, x2 = 0.9005 | 1092 ± 4 | 1.476 ± 0.006 | 1517.8 ± 1.5
303.15 K, x2 = 0 | 1008 ± 4 | 1.451 ± 0.006 | 1702.2 ± 1.7
303.15 K, x2 = 0.1026 | 1017 ± 4 | 1.454 ± 0.006 | 1669.2 ± 1.7
303.15 K, x2 = 0.2008 | 1026 ± 4 | 1.455 ± 0.006 | 1639.1 ± 1.6
303.15 K, x2 = 0.2981 | 1034 ± 4 | 1.458 ± 0.006 | 1611.9 ± 1.6
303.15 K, x2 = 0.3966 | 1042 ± 4 | 1.46 ± 0.006 | 1585.5 ± 1.6
303.15 K, x2 = 0.4933 | 1050 ± 4 | 1.463 ± 0.006 | 1561.2 ± 1.6
303.15 K, x2 = 0.6021 | 1058 ± 4 | 1.465 ± 0.006 | 1537 ± 1.5
303.15 K, x2 = 0.6969 | 1066 ± 4 | 1.467 ± 0.006 | 1516.6 ± 1.5
303.15 K, x2 = 0.7998 | 1074 ± 4 | 1.469 ± 0.006 | 1499 ± 1.5
303.15 K, x2 = 0.9005 | 1082 ± 4 | 1.472 ± 0.006 | 1484 ± 1.5
313.15 K, x2 = 0 | 1000 ± 4 | 1.447 ± 0.006 | 1669.4 ± 1.7
313.15 K, x2 = 0.1026 | 1009 ± 4 | 1.45 ± 0.006 | 1636.3 ± 1.7
313.15 K, x2 = 0.2008 | 1017 ± 4 | 1.452 ± 0.006 | 1605.3 ± 1.7
313.15 K, x2 = 0.2981 | 1025 ± 4 | 1.454 ± 0.006 | 1578.3 ± 1.6
313.15 K, x2 = 0.3966 | 1033 ± 4 | 1.456 ± 0.006 | 1551.7 ± 1.6
313.15 K, x2 = 0.4933 | 1041 ± 4 | 1.458 ± 0.006 | 1527.2 ± 1.6
313.15 K, x2 = 0.6021 | 1049 ± 4 | 1.461 ± 0.006 | 1503 ± 1.5
313.15 K, x2 = 0.6969 | 1057 ± 4 | 1.463 ± 0.006 | 1483.1 ± 1.5
313.15 K, x2 = 0.7998 | 1064 ± 4 | 1.465 ± 0.006 | 1465.2 ± 1.5
313.15 K, x2 = 0.9005 | 1072 ± 4 | 1.468 ± 0.006 | 1449.9 ± 1.5
323.15 K, x2 = 0 | 992 ± 4 | 1.443 ± 0.006 | 1637.3 ± 1.7
323.15 K, x2 = 0.1026 | 1001 ± 4 | 1.446 ± 0.006 | 1603.2 ± 1.7
323.15 K, x2 = 0.2008 | 1009 ± 4 | 1.449 ± 0.006 | 1571.9 ± 1.7
323.15 K, x2 = 0.2981 | 1017 ± 4 | 1.45 ± 0.006 | 1544.7 ± 1.6
323.15 K, x2 = 0.3966 | 1024 ± 4 | 1.452 ± 0.006 | 1517.9 ± 1.6
323.15 K, x2 = 0.4933 | 1031 ± 4 | 1.454 ± 0.006 | 1493.4 ± 1.6
323.15 K, x2 = 0.6021 | 1039 ± 4 | 1.457 ± 0.006 | 1469.3 ± 1.5
323.15 K, x2 = 0.6969 | 1047 ± 4 | 1.459 ± 0.006 | 1449.4 ± 1.5
323.15 K, x2 = 0.7998 | 1054 ± 4 | 1.461 ± 0.006 | 1431.7 ± 1.5
323.15 K, x2 = 0.9005 | 1062 ± 4 | 1.463 ± 0.006 | 1416.4 ± 1.5
